Results as given in US11198897B2, “Rapid antibiotic susceptibility testing by tracking sub-micron scale motion of single bacterial cells” (Arizona Board of Regents on behalf of Arizona State …, priority 2017, dated 2021).

Assays:
[1] = system: UPEC cells in human urine; assay: Rapid AST by motion tracking (DAVG) of UPEC cells in human urine samples; type: cell-based, uropathogenic E. coli
Description: Referring now to FIG. 5A-5F, plots of DAVG of UPEC cells in human urine exposed to increasing concentrations of polymyxin B are there illustrated. UPEC cells (5×10^6 cfu/ml) were added to human urine samples, and DAVG was determined over time in the absence and presence of clinically-relevant concentrations of polymyxin B. The bars with vertical striping represent the baseline DAVG measurement of UPEC cells in urine. DAVG measurement of UPEC cells upon exposure to clinically-relevant concentrations of polymyxin B (bars with horizontal striping; antibiotics added immediately after the baseline measurement) and a high, bactericidal concentration of polymyxin B (bars with diagonal striping, 0.5 mg/ml added after the 90-min measurement). DAVG of cells in wells with (a) 0, (b) 0.25, (c) 1, (d) 2, (e) 4, and (f) 8 μg/ml of polymyxin B. *, p<0.05; ns, not significant.
To test the feasibility of an example of a method for analyzing clinically relevant samples, urine samples collected from healthy patients were spiked with UPEC bacterial cells. Following surface tethering, images were recorded from six different wells with polymyxin B doses varying from 0 to 8 μg/ml.
By repeating these experiments with increasing concentrations of UPEC cells in urine samples, the polymyxin B MBC90 min was determined to be between 4 and 8 μg/ml (Table 1). These MBC data corroborated the previous experiments with 5×10^6 cfu/ml and standard culturing methods which proceeded for 16 h (see also FIG. 17A-FIG. 17F).
An aliquot of frozen E. coliO157:H7 or E. coli CFT073 strain was thawed and used to inoculate 3 ml of Luria broth (LB) one day before the experiments. The overnight, saturated culture grown at 37° C. was diluted into fresh LB at a concentration of ˜10^7 cfu/ml and grown at 37° C. with gentle rotary mixing until the cultures reached an OD600 of 0.56, indicating the mid-logarithmic phase of growth. The corresponding concentration of the bacteria was 4.67×10^8 cfu/ml. Bacterial cells were collected by centrifugation at 2000×g for 15 min and resuspended in 1 ml PBS (1×) to an OD of 0.56. […]

E. coli O157:H7 = assay: Sub-μm motion tracking of antibody-tethered E. coli O157:H7 cells exposed to antibiotic; type: cell-based, Escherichia coli; details: for Distance (root-mean-square displacement of cell center over 20 sec) of a single cell: 0.5 mg/ml polymyxin B
Excerpt: Referring now to FIG. 2A an image of an E. coli O157:H7 bacterial cell with superimposed motion of the cell center over 20 sec shown as darkened dots is shown. E. coli O157:H7 cells 202 tethered to the glass slide were imaged. […] Scale Bar 203 is 1 μm. 43 The center of each bacterial cell was identified in each image frame (described in more detail below with reference to FIG. 6A-FIG. 6D) and plotted as data points 204 in FIG. 2A′.
As there shown, plot 202 plots motion data 204 in nm in X and Y coordinates ranging from −400 nm to 400 nm. The center positions of the bacterial cell (center) at different moments are shown and reveal the sub-μm scale motion of the cell. For quantitative analysis of the sub-μm motion of the bacterial cell, “Distance” is defined as the root-mean-square of the position over 20 seconds. Note that the motion ranges from about −200 nm to 200 nm displacement along both coordinates.
Referring now to FIG. 3A, images of a bacterial cell and displacement of the cell center in 1×PBS before (0 min) and after polymyxin B addition (2 and 5 min) are shown. Images 301, 302, 303 of a bacterial cell and displacement of the cell center 310 in 1×PBS before (0 min) and after polymyxin B addition (2 and 5 min). Antibiotic effects on the sub-μm motion were examined using a lethal dose of polymyxin B (0.5 mg/ml). Images 301, 302, 303 show the bright-field images of an alive bacterial cell before, 2 min, and 5 min, respectively after exposure to 0.5 mg/ml polymyxin B, where the positions of the bacterial cell before and after the exposure to polymyxin B, represented by indicia 310, 310A and 310B respectively. Scale bar 311 is set at 1 μm. #, p=0.065.
The average E. coli O157:H7 distance over 20 sec. in 1×PBS was 278 nm as indicated by bar 350, which reduced to 225 nm within 2 min after addition of 0.5 mg/ml polymyxin B, indicated by bar 352 and further to 65 nm at 5 min post-antibiotic exposure as plotted in plot 324 and represented by bar 354.
A robust AST method must work for a bacterial population that contains a mixture of loosely and tightly bound cells. […] For this mixed population of bound cells, the DAVG was 265 nm (FIG. 3C) before the addition of polymyxin B and dropped to 123 nm at 10 min post-antibiotic exposure (FIG. 3D).
Clean BK7 glass coverslips were coated with 1.5 nm chromium and 48 nm gold and used as sensing chips. The chips were rinsed with deionized water and ethanol multiple times followed by drying with nitrogen gas and cleaning with a hydrogen flame. For antibody surface, the cleaned chips were submerged in 1 mM PEG/PEG-COOH ethanol solution and left in the dark for 24 h to coat a PEG/PEG-COOH self-assembled monolayer (SAM) on each chip. The PEG/PEG-COOH SAM-coated chips were activated with 500 μl of a freshly prepared mixture of 0.1 M NHS and 0.4M EDC in 1:1 ratio to produce NHS ester receptors, which react with the primary amine groups on the antibodies via an amide bond. Chips with activated PEG/PEG-COOH SAM were cleaned with deionized water and blown dry with nitrogen gas. […]
(§1) To quantify bacterial motion, region props MATLAB command was used to obtain the “Centroid” 603 for each segmented cell in the binary images. The centroid is the X and Y coordinates of the bacterial cell center and is calculated as the mean of all non-zero pixels which the bacterial cell occupies. […]

UPEC CFT073 = assay: Broth microdilution assay (MIC, MBC) in Mueller Hinton broth; type: cell-based, uropathogenic E. coli
Description: (§2) Broth microdilution assay was used to determine the polymyxin B MIC and MBC following a standard protocol.^54 Exponential phase UPEC CFT073 cultures were grown as described above, and bacterial suspensions (1×10^8 cfu/ml) were prepared in Mueller Hinton broth. Bacterial suspensions (100 μl of 5×10^6, 10^7, or 10^8 cfu/ml) were added to wells of 96-well microtiter plates containing polymyxin B (0.125-8 μg/ml). The MIC was determined by measuring the absorbance at 600 nm after 16 h standing incubation at 37° C. Cell viability and MBC values were determined by plating duplicate 10-fold serial dilutions for each sample onto Luria Broth agar plates and enumerating colonies after 16 h incubation at 37° C.
Referring now to FIG. 15, a plot measuring inhibition of UPEC in Mueller Hinton broth (MHB) after incubation with increasing polymyxin B concentrations is shown. Growth inhibition of UPEC in Mueller Hinton broth (MHB) after incubation with increasing polymyxin B concentrations. UPEC cells (5×10^6/ml) were incubated in MHB for 16 h at 37° C., followed by optical density measurements (OD600). Average and standard deviation OD600 measurements collected from triplicate experiments were plotted.
Referring now to FIG. 16, a table illustrating growth inhibition and bactericidal activity of the antibiotic polymyxin B is shown. After determining growth inhibition after […]

UPEC cells = assay: Rapid AST by motion tracking (DAVG) of APTES-tethered UPEC cells in 1×PBS; type: cell-based, uropathogenic E. coli
Description: To apply the above motion-tracking method to AST of the clinically relevant UPEC strain, UPEC cells were tethered to the glass surface via APTES surface chemistry and conjugation to the amine group of a bacterial surface protein. Antibiotic dose-dependent experiments were performed in a multiplexed format using multi-well slides and a 40× objective. First, baseline images were captured at 0 min for each well. Subsequently, polymyxin B at clinically relevant concentrations (4, 2, 0.5, and 0.25 μg/ml) was added to different wells, and images were recorded at 15 min intervals for 75 min. Finally, as a positive control, a bactericidal dose (0.5 mg/ml) of polymyxin B was added to all wells, and images were recorded after incubation for 15 min (at 90 min). The control well (Well 1) initially harbored 100 tethered cells (as described below with reference to FIG. 8A) with an initial DAVG of 228 nm (FIG. 4A). Over time (0-75 min), the number of cells on the surface increased gradually (as described below with reference to FIG. 8A) due to replication of the surface-tethered cells (as described below with respect to FIG. 9A-10B). During the first 15 min, DAVG increased from 228 nm to 388 nm, followed by a gradual decrease from 388 to 227 nm over 75 min (FIG. 4A). […] DAVG vs. time was analyzed for polymyxin B varying between 0.5-4 μg/ml (FIG. 4B-FIG. 4E), showing clear correlation between the sub-μm motion and antibiotic concentration. […]
All E. coli O157:H7 experiment image sequences were collected at 106 fps at a pixel resolution of 640×480 using the Pike-032B CCD camera. […] The stage was translated to each well sequentially at the marker spot area and recorded 5 sec image sequences for each well. […]
as §1

[2] = system: UPEC cells spiked in human urine; assay: Culture AST: bactericidal activity against UPEC in spiked urine samples by plating on Luria agar; type: cell-based, uropathogenic E. coli
Description: as §2
Referring now to FIG. 17A-FIG. 17F plots of bactericidal activity of polymyxin B against UPEC in spiked urine samples are shown. UPEC cells were added to human urine samples and exposed to different polymyxin B concentrations. At indicated times, 5 μl of each suspension was inoculated onto Luria agar. After incubation at 37° C. for 16 h, colonies were enumerated and recorded as cfu/ml. The bars with vertical striping represent the initial cfu/ml of UPEC cells in urine, and bars with horizontal striping represent cfu/ml of UPEC cells upon exposure to clinically-relevant concentrations of polymyxin B (antibiotics added immediately after the baseline measurement) in urine.

[3] = after addition of 0.5 mg/ml polymyxin B

Q: What does the source list for polymyxin B?
A: DAVG change in urine ([1]; 4 and 8 μg/ml polymyxin B, p<0.05, to values similar to lethal 0.5 mg/ml dose): decreased significantly; DAVG change over time in urine ([1]; 90 min incubation with 0.25, 1, or 2 μg/ml polymyxin B): either remained unchanged or increased; Rapid AST MBC 90 min ([1]; UPEC concentration in urine 10^8 cfu/ml): 4 µg/mL; Distance (root-mean-square displacement of cell center over 20 sec) of a single cell (E. coli O157:H7; 2 min after addition, 278 nm in 1×PBS before): 225 nm; Distance (root-mean-square displacement of cell center over 20 sec) of a single cell (E. coli O157:H7; 5 min post-antibiotic exposure, 278 nm before): 65 nm; Viable cells on overnight culturing after exposure (E. coli O157:H7; 5 min exposure to lethal dose 0.5 mg/ml): no viable cells; DAVG change of completely tethered bacterial cells (E. coli O157:H7; [3]): no change; DAVG change of loosely tethered bacterial cells (E. coli O157:H7; [3]): significant decrease; Standard incubation (16 h) MBC (UPEC CFT073; quantitative plating after 16 h incubation): 2 µg/mL; Minimum inhibitory concentration (MIC) (UPEC CFT073; standard microdilution broth assay, 16 h incubation): 1 µg/mL; DAVG after lethal polymyxin B concentration (UPEC cells; control well, 0.5 mg/ml added after 75-min measurement, 227 nm before, p<0.05): 64 nm; Number of cells on the surface over 75 min (UPEC cells; polymyxin B 0.5-4 μg/ml, indicating growth inhibition): remained constant; Minimum bactericidal concentration at 75 min (MBC75 min) (UPEC cells; rapid AST, 75 min, 1×PBS): 4 µg/mL; Colonies on Luria agar after bactericidal concentration ([2]; 0.5 mg/ml added after the 90-min measurement, additional 15-min incubation): no colonies were detected; MBC against UPEC cells spiked in human urine ([2]; plating on Luria agar, 16 h at 37° C.): 2 µg/mL
